Measurements taken from patent US11793790B2, “Compositions against Candida infections” (Katholieke Universiteit Leuven, priority 2017, dated 2023).

Tests used:
[1] = system: C. albicans biofilm cells; experiment: Kinetic PI (propidium iodide) fluorescence assay on biofilms; assay type: cell-based, Candida albicans
[2] = system: planktonic C. glabrata cultures (strain BG2); experiment: Checkerboard assay with determination of the MIC; assay type: cell-based, Candida glabrata
Description: A C. glabrata BG2 overnight culture, grown in YPD, was diluted to an optical density of 0.1 (approximately 10^6 cells/mL) in RPMI medium, preheated at 37° C. 90 μL of the cell suspension was added to the wells of a 96 well plate, containing 10 μL of a combination of MCZ and DB, two fold diluted across rows and columns respectively (DMSO background 2%). After both 24 h and 48 h of incubation at 37° C., absorbance was measured at 490 nm by a multimode reader (Synergy Mx multi-mode microplate reader, BioTek, USA).
Domiphen bromide (DB) is a potentiator of miconazole against C. glabrata biofilms. […] MIC values were determined using Graphpad Prism 6 (table 8).

[3] = system: C. glabrata biofilms (strain BG2); experiment: Biofilm checkerboard assay with CFU determination (Example 9); assay type: cell-based, Candida glabrata; settings: on its own or in combination with DB
Description: After 1 h of adhesion at 37° C., the medium was aspirated and biofilms were washed with 100 μL PBS to remove non-adherent cells, followed by the addition of 100 μL RPMI 1640 medium. Biofilms were allowed to grow for 24 h at 37° C. To determine possible potentiation of MCZ by DB, a checkerboard assay was used. […] After 38 h of incubation at 37° C., CFU determination was performed on treated biofilms. […] Serial dilutions (10^−2, 10^−3 and 10^−4) were plated on YPD agar plates, followed by an incubation period of 24 h at 37° C. and subsequent colony counting.

C. albicans biofilms = experiment: Biofilm checkerboard assay (CTB metabolic activity, BEC-2, FICI); settings: for BEC-2 MCZ: 24 h
[4] = cited from earlier work
[5] = single treatment at 50 μM, 5-10 h after treatment

benzalkonium chloride
PI fluorescence [1, 5]: slight increase
potentiation of MCZ against planktonic C. glabrata cultures [2]: could not potentiate MCZ

CC[C@@H]([C@H](C)O)n1ncn(-c2ccc(N3CCN(c4ccc(OC[C@@H]5CO[C@@](Cn6cncn6)(c6ccc(F)cc6F)C5)cc4)CC3)cc2)c1=O [Posaconazole]
antibiofilm activity against C. glabrata biofilms [3]: no significant antibiofilm activity

CC[N+](CC)(CC)CC.[Br-] [tetraethylammonium bromide]
FICI with Miconazole (C. albicans biofilms; quaternary ammonium compound combined with Miconazole): > 0.5

Clc1ccc(COC(Cn2ccnc2)c2ccc(Cl)cc2Cl)c(Cl)c1 (stereo not drawn) [miconazole nitrate]
solubility in water [4]: insoluble in water

Clc1ccc(COC(Cn2ccnc2)c2ccc(Cl)cc2Cl)c(Cl)c1 (racemic) [Miconazole, (RS)-1-[2-(2,4-dichlorofenyl)-2-[(2,4-dichlorofenyl)methoxy]ethyl] imidazole]
PI fluorescence ([1]; single treatment 150 μM, after 16 h of treatment): slight increase
solubility in water [4]: insoluble in water
BEC-2 MCZ (C. albicans biofilms; 0 μM DB (MCZ alone)): 230 µM
BEC-2 MCZ (C. albicans biofilms; in combination with 1.56 μM DB): 150 µM
BEC-2 MCZ (C. albicans biofilms; in combination with 3.125 μM DB): 100 µM
BEC-2 MCZ (C. albicans biofilms; in combination with 6.25 μM DB): 55 µM
BEC-2 MCZ (C. albicans biofilms; in combination with 12.5 μM DB): 30 µM
BEC-2 MCZ (C. albicans biofilms; in combination with 25 μM DB): 1 µM

CCCCCCCCCCCC[N+](C)(C)CCOc1ccccc1 [domiphen bromide, N,N-dimetyl-N-(2-phenoxyetyl)-, bromide]
PI fluorescence [1, 5]: slight increase
solubility in water [4]: highly soluble in water
